Source: ChEMBL document CHEMBL2448688, “Selection and optimization of hits from a high-throughput phenotypic screen against Trypanosoma cruzi. Exported from HEOS 25-Oct-2013. See also related datasets CHEMBL3137440 and CHEMBL3137386”
≈ marks a conversion by molar mass, not a printed value. Where “and” joins values, the source holds several entries; their conditions need not be identical. Identical values can stand only once.

Key:
Trypanosoma cruzi [1] = assay: (§1) DNDI: Chagas in Vitro; format: functional, organism-based, Tulahuen C4 (LacZ)
Trypanosoma cruzi [2] = assay: as §1; format: functional, Tulahuen C4 (LacZ)
Cytochrome P450 3A4 [3] = target: T1, Cytochrome P450 3A4 (Homo sapiens, UniProt P08684); assay: DNDI: Human CYP3A4 inhibition determined using 6b-hydroxylation of testosterone
[4] = (§2) DNDI: Cytotoxicity in vitro, against rat skeletal myoblast (L-6) cells; details: L-6 cells (skeletal myoblasts), IC50
[5] = test system: Trypanosoma brucei rhodesiense; assay: (§3) DNDI: HAT in Vitro; format: functional, organism-based, ATCC 30027
Leishmania donovani = assay: DNDI: Leish macro in vitro at 10 uM; format: functional; details: MHOM/ET/67/L82
[6] = DNDI: Lipophilicity (gLogD) at pH 3; details: buffer, pH 3, logD
[7] = DNDI: Lipophilicity (gLogD) at pH 7.4; details: buffer, pH 7.4, logD
[8] = DNDI: Solubility in 0.01M HCl at pH 2 determined by nephelometry; details: for solubility kinetic: 0.01M HCl, pH 2, Kinetic
[9] = DNDI: Solubility in phosphate buffer at pH 6.5 determined by nephelometry; details: for solubility kinetic: phosphate buffer, pH 6.5, Kinetic
in vitro [10] = details: human, microsomes
in vitro [11] = details: human, microsomes, EH
in vitro [12] = details: human, microsomes, t (1 / 2)
L6 = assay: as §2; details: L-6 cells (skeletal myoblasts)
[13] = DNDI: Metabolism; format: ADME, Microsome; details: rat, microsomes
in vitro [14] = details: rat, microsomes
in vitro [15] = details: rat, microsomes; remark: listed apart in the source
in vitro [16] = details: rat, microsomes; remark: listed apart in the source
Cytochrome P450 3A4 [17] = target: T1, Cytochrome P450 3A4; assay: DNDI: CYP Inhibition; format: ADME
[18] = human, microsomes
[19] = human, microsomes; remark: listed apart in the source
[20] = human, microsomes; remark: listed apart in the source
Trypanosoma cruzi [21] = assay: DNDI: Chagas in vivo at 20 mg/kg, 20 days 2x; format: functional, Tulahuen Swiss po
Trypanosoma cruzi [22] = assay: DNDI: Chagas in vivo at 50 mg/kg, 20 days 1x; format: functional, Tulahuen Swiss po
[23] = DNDI: Protein binding in mouse plasma
[24] = DNDI: Protein binding in rat plasma; format: ADME, cell-free; details: read-out: % bound (converted)
in vitro [25] = details: mouse, microsomes
in vitro [26] = details: mouse, microsomes; remark: listed apart in the source
in vitro [27] = details: rat, hepatocytes
[28] = test system: Trypanosoma brucei brucei; assay: as §3; format: functional, organism-based; details: SBRI 427
[29] = test system: Trypanosoma brucei brucei; assay: DNDI: HAT in vivo at 50 mg/kg, 4 adm days; format: functional, EATRO 110 po
Leishmania infantum [30] = assay: DNDI: Leish (macro) in Vitro; format: functional, organism-based, MHOM/MA(BE)/67
Leishmania infantum [31] = assay: DNDI: Leish In Vivo - % inhibition and MSD at 50 mg/kg, 5 days 2x; format: functional, MHOM/MA(BE)/67 Hamster-Early curative model po
[32] = Trypanosoma cruzi, Tulahuen C4 (LacZ)

T1 sequence (P08684 whole entry): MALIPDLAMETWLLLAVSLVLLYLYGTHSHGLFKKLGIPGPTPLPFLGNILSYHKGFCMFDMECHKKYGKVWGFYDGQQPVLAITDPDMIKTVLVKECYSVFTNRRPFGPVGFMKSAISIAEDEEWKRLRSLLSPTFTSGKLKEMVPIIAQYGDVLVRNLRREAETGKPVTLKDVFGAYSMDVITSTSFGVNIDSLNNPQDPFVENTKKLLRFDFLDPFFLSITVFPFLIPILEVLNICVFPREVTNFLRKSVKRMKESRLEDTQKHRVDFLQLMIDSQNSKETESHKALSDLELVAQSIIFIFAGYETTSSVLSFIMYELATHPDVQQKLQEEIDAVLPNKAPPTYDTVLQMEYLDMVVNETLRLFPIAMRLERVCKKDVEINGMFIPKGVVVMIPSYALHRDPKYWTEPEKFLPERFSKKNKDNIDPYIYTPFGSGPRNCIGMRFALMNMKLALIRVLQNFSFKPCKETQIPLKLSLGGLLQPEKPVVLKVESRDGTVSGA

Row | Structure (SMILES) | IC50 (Trypanosoma cruzi [1]; [32]) | IC90 (Trypanosoma cruzi [2]; [32]) | IC50 [4] | IC50 ([5]; Trypanosoma brucei, ATCC 30027) | chromatographic logD [6] | chromatographic logD [7] | solubility kinetic [8] | solubility kinetic [9] | microsomal CLint (in vitro [10]) | hepatic extraction ratio (in vitro [11]) | half-life (in vitro [12]) | IC90 (Trypanosoma cruzi [2]) | IC50 (Trypanosoma cruzi [1]) | other results
1 | CS(=O)(=O)c1ccc(-n2ccnc2)c(NC(=O)c2cnc(-c3ccccc3)nc2)c1 | 90 nM | > 100 nM | > 100 µM | > 10 µM | 1.7 | 2.3 | 50 µg/mL (≈ 119 µM) | 12.5 µg/mL (≈ 29.8 µM) | < 7 µL/min/mg | < 0.28 | > 250 min | – | – | IC50 (Cytochrome P450 3A4 [3]): > 20000 nM; inhibition at 10 µM (Leishmania donovani): 48.2%
2 | CO/N=C(\C)c1ccc(-n2ccnc2)c(NC(=O)c2ccc(-c3ccccn3)s2)c1 | – | – | 65.6 µM | – | 2.3 | 3.1 | > 100 µg/mL | – | 30 µL/min/mg | 0.54 | 57 min | > 100 nM and 12.8 nM | – | IC50 (Cytochrome P450 3A4 [3]): 2000 nM; IC50 (L6): 72.5 µM; CLblood [13]: 42 mL/min/kg; half-life (in vitro [14]): 27 min; microsomal CLint (in vitro [15]): 64 µL/min/mg; hepatic extraction ratio (in vitro [16]): 0.62
3 | OC(COc1ccc2cc(Br)ccc2c1)Cn1ccnc1 (stereo not given) | 30 nM | 193 nM | 65.9 µM | > 10 µM | – | – | – | – | – | – | – | – | – | IC50 (Cytochrome P450 3A4 [17]): 700 nM
4 | Cl.NCC(=O)N(Cc1cccnc1)c1cc(F)cc(-c2nc3ccccc3s2)c1 | 49 nM | 125 nM | > 100 µM | – | – | 2.29 | 57.5 µg/mL | 53 µg/mL | – | – | – | – | – | Kinetic ([8]; buffer, pH 2): > 100 µg/mL; Kinetic ([9]; buffer, pH 6.5): > 100 µg/mL; CLint in vitro [18]: 66 µL/min/mg and 30 µL/min/mg; EH [19]: 0.54 none; t (1 / 2) [20]: 58 min and 26.3 min
5 | CO/N=C(\C)c1ccc(-n2ccnc2)c(NC(=O)c2cnc(-c3ccccc3)nc2)c1 | – | – | > 100 µM | > 10 µM | 2.6 | 3.4 | > 100 µg/mL | < 1.6 µg/mL | 24 µL/min/mg | – | 73 min | 10.5 nM and 25.9 nM | 3 nM and 8 nM | PCR cure rate (Trypanosoma cruzi [21]): 0%; Parasitemia clearance after immunosuppression (Trypanosoma cruzi [21]): 60%; Parasitemia clearance after treatment (Trypanosoma cruzi [21]): 80%; PCR cure rate (Trypanosoma cruzi [22]): 0%; Parasitemia clearance after immunosuppression (Trypanosoma cruzi [22]): 0%; Parasitemia clearance after treatment (Trypanosoma cruzi [22]): 60%; inhibition at 10 µM (Leishmania donovani): 47.3%; fraction unbound [23]: 0.028; fraction unbound [24]: 0.014; microsomal CLint (in vitro [25]): 34 µL/min/mg; half-life (in vitro [26]): 52 min; CLhep predicted (in vitro [27]): 26.7 mL/min/kg; half-life (in vitro [14]): 38 min; microsomal CLint (in vitro [15]): 46 µL/min/mg
6 | O=c1c2ccccc2nc(-c2ccc(-c3ccccc3)cc2)n1Cc1cccnc1 | 25.5 nM | – | 16.1 µM | – | 3.4 | 3.8 | > 100 µg/mL | 1.6 µg/mL (≈ 4.11 µM) | 48 µL/min/mg | 0.73 | 36 min | 257 nM and > 100 nM | 26 nM | IC50 (Cytochrome P450 3A4 [17]): > 20000 nM; IC50 (L6): 19.4 µM; IC50 [5]: 23.3 µM and > 10 µM
7 | CN1CCC(NCC(O)COc2ccc3cc(Br)ccc3c2)CC1 (stereo not given) | – | – | – | – | – | – | – | – | – | – | – | 5670 nM and > 1000 nM and 8200 nM | 853 nM and 3660 nM and 1930 nM | IC50 [28]: 53 nM; IC50 [5]: 0.028 µM and 0.0745 µM and 0.057 µM; MSD [29]: 7 days; IC50 (Leishmania infantum [30]): 426 nM and 198 nM and 500 nM; % inhibition in bone-marrow (Leishmania infantum [31]): 41.4%; % inhibition in liver (Leishmania infantum [31]): 26.8%; % inhibition in spleen (Leishmania infantum [31]): 44.9%
